One test concerns the target T1, human CB1 receptor (Homo sapiens, UniProt P21554).
T1 construct: expressed in transfected cells; host or cells: SK-N-MC cells, stably transfected with pcDNA3 CB-1 (human); semi-purified membrane pellet
In words: Cannabinoid CB1 receptor binding assay ([3H]-CP-55,940 displacement, SK-N-MC cell membranes). The note with it: for inhibition at 0.2 µM: 1.5 h, read-out: Cannabinoid CB1 Receptor Binding, percent inhibition. Here is the method: (§1) Binding Assay for CB1 or CB2 Agonists or Inverse Agonists
(§2) The human CB1 and CB2 receptors were stably expressed in SK-N-MC cells transfected with pcDNA3 CB-1 (human) or pcDNA3 CB-2 (human). The cells were grown in T-180 cell culture flasks under standard cell culture conditions at 37° C. in a 5% CO2 atmosphere. The cells were harvested by trysinization and homogenized in a homogenization buffer (10 mM Tris, 0.2 mM MgCl2, 5 mM KCl, with protease inhibitors aprotinin, leupeptin, pepstatin A and bacitracin) and centrifuged (2000 g). The supernatant was then centrifuged in 2M sucrose (31,300 g) to produce a semi-purified membrane pellet. The pellet was resuspended in homogenization and stored at −80° C.
(§3) On the day of the assay, the pellet was thawed on ice and diluted in assay buffer (50 mM Tris-HCl, 5 mM MgCl2, 2.5 mM EDTA, 0.5 mg/mL fatty acid free bovine serum albumin, pH 7.5). The diluted membrane pellet was added with buffer, either a test compound or vehicle standard and the radioligand […] (0.2 nM) to the wells of a 96-well polypropylene plate. Non-specific binding was measured in wells containing W1N 55,212 (10 uM). The plate was covered and incubated for 90 minutes at 30° C. The contents were then aspirated onto a Packard Unifilter GF/C filter bottom plate prewet with 0.5% polyethyleneimine. The wells of the polypropylene plate were rinsed and aspirated seven times with a 0.9% saline-0.5% Tween 20 solution. The Unifilter plate was dried, scintillation cocktail was added to each well and the counts representing binding were quantitated in a TopCount scintillation counter.
(§4) For compounds tested, an IC50 binding value was obtained from percent inhibition studies in which various test concentrations were used. The binding value was calculated by linear regression.
(§5) For compounds without an IC50 binding value, the percent inhibition (%) was obtained at a test concentration of 0.2 μM.

A further test concerns the target T2, human CB2 receptor (Homo sapiens, UniProt P34972).
T2 construct: expressed in transfected cells; host or cells: SK-N-MC cells, stably transfected with pcDNA3 CB-2 (human); semi-purified membrane pellet
Description: Cannabinoid CB2 receptor binding assay ([3H]-CP-55,940 displacement, SK-N-MC cell membranes). The settings on record: 1.5 h; test concentration of 0.2 μM; radioligand CP-55,940 0.2 nM; read-out: Cannabinoid CB2 Receptor Binding, percent inhibition. How it is done: as §1, §2, §3, §4, §5

Our source for the IC50 and inhibition values is US20070117858A1, “SUBSTITUTED 5-HETEROARYL-1-PHENYL-PYRAZOLE CANNABINOID MODULATORS” (priority 2005, published 2007).

T1 sequence (P21554 whole entry): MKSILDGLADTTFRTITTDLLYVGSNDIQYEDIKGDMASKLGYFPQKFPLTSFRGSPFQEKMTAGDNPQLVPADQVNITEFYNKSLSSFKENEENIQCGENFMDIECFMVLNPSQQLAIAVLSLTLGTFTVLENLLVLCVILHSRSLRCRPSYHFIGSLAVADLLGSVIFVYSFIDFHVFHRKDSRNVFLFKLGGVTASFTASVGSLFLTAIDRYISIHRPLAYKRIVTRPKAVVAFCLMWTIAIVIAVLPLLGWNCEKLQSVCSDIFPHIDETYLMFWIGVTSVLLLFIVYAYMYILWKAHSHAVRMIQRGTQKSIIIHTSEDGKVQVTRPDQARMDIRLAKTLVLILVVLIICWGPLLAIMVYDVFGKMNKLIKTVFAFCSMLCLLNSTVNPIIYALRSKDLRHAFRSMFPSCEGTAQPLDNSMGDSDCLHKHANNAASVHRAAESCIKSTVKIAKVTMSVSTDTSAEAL
T2 sequence (P34972 whole entry): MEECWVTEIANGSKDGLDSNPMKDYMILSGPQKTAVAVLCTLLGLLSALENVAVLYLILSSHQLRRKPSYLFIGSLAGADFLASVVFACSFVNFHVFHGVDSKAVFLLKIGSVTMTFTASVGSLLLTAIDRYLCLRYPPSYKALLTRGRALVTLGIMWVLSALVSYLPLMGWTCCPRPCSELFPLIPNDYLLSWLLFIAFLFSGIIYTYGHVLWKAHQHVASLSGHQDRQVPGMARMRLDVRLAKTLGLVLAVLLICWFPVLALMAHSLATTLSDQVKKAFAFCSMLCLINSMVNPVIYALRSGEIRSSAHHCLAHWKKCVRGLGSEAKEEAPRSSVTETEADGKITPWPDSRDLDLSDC

As to `Cc1c(C(=O)N[C@H](C)c2ccccc2)nn(-c2ccc(Cl)cc2Cl)c1-c1ccc(Cl)s1` [Cpd 14, 5-(5-chloro-thiophen-2-yl)-1-(2,4-dichloro-phenyl)-4-methyl-1H-pyrazole-3-carboxylic acid [(1R)-1-phenyl-ethyl]-amide], the IC50 (as a rule, the concentration that gives 50% inhibition) at human CB1 receptor was 27 nM. Besides, the inhibition (usually the drop in the measured response relative to a control, in per cent) at 0.2 µM at human CB2 receptor was determined as 40%.
Consider `C[C@@H](NC(=O)c1nn(-c2ccc(Cl)cc2Cl)c(-c2ccc(Cl)s2)c1C#N)c1ccccn1` [Cpd 27, 5-(5-chloro-thiophen-2-yl)-4-cyano-1-(2,4-dichloro-phenyl)-1H-pyrazole-3-carboxylic acid [(1R)-1-pyridin-2-yl-ethyl]-amide], for which the inhibition at 0.2 µM on human CB1 receptor was 69%; on human CB2 receptor it was 12%.
Regarding `Cc1c(C(=O)NN2CCCCC2)nn(-c2ccc(Cl)cc2Cl)c1-c1ccc(Br)s1` [Cpd 22, 5-(5-bromo-thiophen-2-yl)-1-(2,4-dichloro-phenyl)-4-methyl-1H-pyrazole-3-carboxylic acid piperidin-1-ylamide], the IC50 on human CB1 receptor is 37 nM. Besides, the inhibition at 0.2 µM on human CB2 receptor came out at 42%.
Turning to `Cc1ccc(-c2c(C)c(C(=O)N[C@H](C)c3ccccn3)nn2-c2ccc(Cl)cc2Cl)o1` [Cpd 56, 1-(2,4-dichloro-phenyl)-4-methyl-5-(5-methyl-furan-2-yl)-1H-pyrazole-3-carboxylic acid [(1R)-1-pyridin-2-yl-ethyl]-amide], the inhibition at 0.2 µM on human CB1 receptor amounted to 41%; on human CB2 receptor it was 26%.
Taken in the same sequence, the figures for `Cc1c(C(=O)N[C@@H](C)c2ccccc2)nn(-c2ccc(Cl)cc2Cl)c1-c1ccc(F)s1` [Cpd 31, 1-(2,4-dichloro-phenyl)-5-(5-fluoro-thiophen-2-yl)-4-methyl-1H-pyrazole-3-carboxylic acid [(1S)-1-phenyl-ethyl]-amide] were 64% and 39%.
At human CB1 receptor, `CCc1c(C(=O)N[C@@H](C)C2CCCCC2)nn(-c2ccc(Cl)cc2Cl)c1-c1ccc(Br)s1` [Cpd 43, 5-(5-bromo-thiophen-2-yl)-1-(2,4-dichloro-phenyl)-4-ethyl-1H-pyrazole-3-carboxylic acid [(1S)-1-cyclohexyl-ethyl]-amide] displayed an IC50 of 8 nM. Besides, on human CB2 receptor, the inhibition at 0.2 µM is 39%.
Turning to `Cc1c(C(=O)N[C@@H](C)C2CCCCC2)nn(-c2ccc(Cl)cc2Cl)c1-c1cccs1` [Cpd 8, 1-(2,4-dichloro-phenyl)-4-methyl-5-thiophen-2-yl-1H-pyrazole-3-carboxylic acid [(1S)-1-cyclohexyl-ethyl]-amide], the results for the inhibition at 0.2 µM at human CB1 receptor and at human CB2 receptor were 34% and 1%, respectively.
Consider `Cc1c(C(=O)N[C@@H](C)C2CCCCC2)nn(-c2ccc(Cl)cc2Cl)c1-c1cc(Br)cs1` [Cpd 48, 5-(4-bromo-thiophen-2-yl)-1-(2,4-dichloro-phenyl)-4-methyl-1H-pyrazole-3-carboxylic acid [(1S)-1-cyclohexyl-ethyl]-amide], for which the inhibition at 0.2 µM came to 60% at human CB1 receptor and 49% at human CB2 receptor.
Taken in the same sequence, the figures for `Cc1ccc(-c2c(C)c(C(=O)NN3CCCCC3)nn2-c2ccc(Cl)cc2Cl)o1` [Cpd 53, 1-(2,4-dichloro-phenyl)-4-methyl-5-(5-methyl-furan-2-yl)-1H-pyrazole-3-carboxylic acid piperidin-1-ylamide] were 40% and 21%.
For the compound `Cc1c(C(=O)N[C@@H](C)C2CCCCC2)nn(-c2ccc(Cl)cc2Cl)c1-c1ccc(F)s1` [Cpd 33, 1-(2,4-dichloro-phenyl)-5-(5-fluoro-thiophen-2-yl)-4-methyl-1H-pyrazole-3-carboxylic acid [(1S)-1-cyclohexyl-ethyl]-amide], the inhibition at 0.2 µM was determined as 73% at human CB1 receptor and 41% at human CB2 receptor.
For the compound `Cc1c(C(=O)NN2CCCCC2)nn(-c2ccc(Cl)cc2Cl)c1-c1cccs1` [Cpd 10, 1-(2,4-dichloro-phenyl)-4-methyl-5-thiophen-2-yl-1H-pyrazole-3-carboxylic acid piperidin-1-ylamide], the inhibition at 0.2 µM was determined as 37% at human CB1 receptor and 6% on human CB2 receptor.
Consider `Cc1c(C(=O)NN2CCCCC2)nn(-c2ccc(Cl)cc2Cl)c1-c1ccc(I)s1` [Cpd 29, 1-(2,4-dichloro-phenyl)-5-(5-iodo-thiophen-2-yl)-4-methyl-1H-pyrazole-3-carboxylic acid piperidin-1-ylamide], for which the IC50 on human CB1 receptor turned out to be 17 nM. At human CB2 receptor, the inhibition at 0.2 µM was found to be 55%.
For the compound `CCc1c(C(=O)NN2CCC(O)CC2)nn(-c2ccc(Cl)cc2Cl)c1-c1ccc(Br)s1` [Cpd 51, 5-(5-bromo-thiophen-2-yl)-1-(2,4-dichloro-phenyl)-4-ethyl-1H-pyrazole-3-carboxylic acid (4-hydroxy-piperidin-1-yl)-amide], the inhibition at 0.2 µM came to 63% at human CB1 receptor and 13% on human CB2 receptor.
The corresponding values for `Cc1c(C(=O)N[C@@H](C)c2ccccc2)nn(-c2ccc(Cl)cc2Cl)c1-c1cccs1` [Cpd 7, 1-(2,4-dichloro-phenyl)-4-methyl-5-thiophen-2-yl-1H-pyrazole-3-carboxylic acid [(1S)-1-phenyl-ethyl]-amide] are 28% and 0%.
In turn, `Cc1c(C(=O)N[C@@H](C)c2ccccn2)nn(-c2ccc(Cl)cc2Cl)c1-c1ccc(Cl)s1` [Cpd 1, 5-(5-chloro-thiophen-2-yl)-1-(2,4-dichloro-phenyl)-4-methyl-1H-pyrazole-3-carboxylic acid [(1S)-1-pyridin-2-yl-ethyl]-amide] returned an IC50 at human CB1 receptor of 38 nM.
Still for that read-out and setting: the same measure for `Cc1c(C(=O)N[C@@H](C)c2ccccc2)nn(-c2ccc(Cl)cc2Cl)c1-c1ccc(I)s1` [Cpd 36, 1-(2,4-dichloro-phenyl)-5-(5-iodo-thiophen-2-yl)-4-methyl-1H-pyrazole-3-carboxylic acid [(1S)-1-phenyl-ethyl]-amide]: 17 nM; for `Cc1c(C(=O)NN2CCCCC2)nn(-c2ccc(Cl)cc2Cl)c1-c1ccc(Cl)s1` [Cpd 2, 5-(5-chloro-thiophen-2-yl)-1-(2,4-dichloro-phenyl)-4-methyl-1H-pyrazole-3-carboxylic acid piperidin-1-ylamide]: 40 nM.
Still for that read-out and setting: the same measure for `Cc1c(C(=O)N[C@@H](C)c2ccccc2)nn(-c2ccc(Cl)cc2Cl)c1-c1ccc(Cl)s1` [Cpd 3, 5-(5-chloro-thiophen-2-yl)-1-(2,4-dichloro-phenyl)-4-methyl-1H-pyrazole-3-carboxylic acid [(1S)-1-phenyl-ethyl]-amide]: 35 nM; for `Cc1c(C(=O)N[C@@H](C)c2ccccn2)nn(-c2ccc(Cl)cc2Cl)c1-c1ccc(I)s1` [Cpd 37, 1-(2,4-dichloro-phenyl)-5-(5-iodo-thiophen-2-yl)-4-methyl-1H-pyrazole-3-carboxylic acid [(1S)-1-pyridin-2-yl-ethyl]-amide]: 31 nM; for `Cc1c(C(=O)N[C@H](C)c2ccccc2)nn(-c2ccc(Cl)cc2Cl)c1-c1ccc(I)s1` [Cpd 38, 1-(2,4-dichloro-phenyl)-5-(5-iodo-thiophen-2-yl)-4-methyl-1H-pyrazole-3-carboxylic acid [(1R)-1-phenyl-ethyl]-amide]: 23 nM.
On the same count and under the same terms, next, `Cc1c(C(=O)N[C@@H](C)C2CCCCC2)nn(-c2ccc(Cl)cc2Cl)c1-c1ccc(I)s1` [Cpd 39, 1-(2,4-dichloro-phenyl)-5-(5-iodo-thiophen-2-yl)-4-methyl-1H-pyrazole-3-carboxylic acid [(1S)-1-cyclohexyl-ethyl]-amide]: 18 nM.
